In paper PMC10692381 (Acta Pharmaceutica Sinica. B, 2023):

Molecular target: PRMT3 (Homo sapiens, UniProt O60678)
Test: Fluorescence-based SAHH-coupled PRMT3 methylation assay
Type: biochemical

Chain of PRMT3 (O60678 211-531): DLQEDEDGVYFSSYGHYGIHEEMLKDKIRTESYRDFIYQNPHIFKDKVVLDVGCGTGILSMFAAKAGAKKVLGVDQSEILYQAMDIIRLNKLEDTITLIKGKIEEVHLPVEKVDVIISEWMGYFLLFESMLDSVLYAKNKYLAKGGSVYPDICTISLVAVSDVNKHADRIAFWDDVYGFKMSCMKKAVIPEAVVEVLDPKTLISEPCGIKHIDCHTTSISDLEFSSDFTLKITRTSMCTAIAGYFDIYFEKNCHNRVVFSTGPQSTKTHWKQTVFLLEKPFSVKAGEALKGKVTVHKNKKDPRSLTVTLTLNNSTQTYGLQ

SMILES | fold reduction in PRMT3 inhibition (compared to YD1113) | also measured
Nc1ncnc2c1ncn2[C@@H]1O[C@H](CSCCNC(=O)NCc2ccccc2)[C@@H](O)[C@H]1O [Compound 1c] | – | fold increased inhibition for PRMT3 (compared to 1b (linker 3C to 2C)): 140 fold
Nc1ncnc2c1ncn2[C@@H]1O[C@H](CSCCNC(=O)NCc2ccc(F)cc2)[C@@H](O)[C@H]1O [Compound 1e] | over 10 fold | –
Nc1ncnc2c1ncn2[C@@H]1O[C@H](CSCCNC(=O)Nc2ccccc2)[C@@H](O)[C@H]1O [Compound 1h] | 4 fold | –
Nc1ncnc2c1ncn2[C@@H]1O[C@H](CSCCNC(=O)Nc2ccc(F)cc2)[C@@H](O)[C@H]1O [Compound 1i] | 4 fold | –
Nc1ncnc2c1ncn2[C@@H]1O[C@H](CSCCNC(=O)Nc2ccc(Cl)cc2)[C@@H](O)[C@H]1O [Compound 1j] | – | fold reduction in PRMT3 inhibition (compared to 1i): 10 fold
Nc1ncnc2c1ncn2[C@@H]1O[C@H](CSCCNC(=O)Nc2cccc3ccccc23)[C@@H](O)[C@H]1O [Compound 1k] | – | fold reduction in PRMT3 inhibition (compared to phenyl (1h)): over 40 fold
